Measured values: publication PMC3605511, “Tumor P-Glycoprotein Correlates with Efficacy of PF-3758309 in in vitro and in vivo Models of Colorectal Cancer” (Frontiers in Pharmacology, 2013)
Read-outs that look alike come from different tables or passages of the source.

Experiments:
Caco-2 = experiment: Cell proliferation assay, Caco-2; format: cell-based; settings: Homo sapiens
Protocol: (§1) Cytotoxic/proliferation effects were determined using the sulforhodamine B (SRB) assay (Skehan et al., [1990]) or by resazurin. Briefly, cells in logarithmic growth phase were transferred to 96 well flat bottom plates with lids. One-hundred microliter cell suspensions containing 1500–5000 viable cells were plated into each well and incubated overnight prior to exposure with increasing concentrations of PF-309 for 3–5 days, dependent upon cell type. Media was removed and cells were fixed with cold 10% trichloroacetic acid for 30 min at 4°C. Cells were then washed with water and stained with 0.4% SRB (Fisher Sci., Pittsburgh, PA, USA) for 30 min at room temperature, washed again with 1% acetic acid, followed by stain solubilization with 10 mM tris at room temperature. The plate was then read on a plate reader (Biotek Synergy 2, Winooski, VT, USA) set at an absorbance wavelength of 565 nm. Cell proliferation curves were derived from the raw absorbance (OD) data.
(§2) Since PF-309 appeared to be a strong P-gp and BCRP substrates, we sought to evaluate if the transporters influenced sensitivity in vitro. We evaluated the sensitivity of CRC cell lines to PF-309 treatment in a panel of 27 lines. Cells were exposed to PF-309 at a range of concentrations for 72 h and cell content measured by SRB assay (see Pitts et al., [2013]). […]

CUCRC042 CRC PDTX model = experiment: Patient derived tumor xenograft efficacy, CUCRC042; format: in vivo, mice; settings: 25 mg/kg orally twice daily, 22–56 days, end of study tumor volumes
Protocol: (§3) For patient tumor xenografts, surgical specimens of patients undergoing either removal of a primary or metastatic tumor at the University of Colorado Hospital are implanted subcutaneously into five mice for each patient with a 10-G trochar. After a subsequent growth and passage in mice, tumors are excised, and expanded into cohorts for treatment (n = 6–15 per group). Mice were treated with PF-309 or vehicle (0.5% methylcellulose) for 22–56 days (until control tumor volume reach ∼1500 mm^3) twice daily (BID) by oral gavage (PO). Monitoring of mice and measurements of tumors were conducted as described above. % Growth Inhibition= (average control volume−average treated volume)/average control volume×100% In addition to the cell line xenografts, we also treated 12 different patient derived tumor xenograft (PDTX) CRC models with PF-309 (Figure 6). We were unable to assess how ABCB1 gene expression correlated with efficacy in these models. The PDTX models are propagated in vivo, are not immortalized, and are not grown in in vitro culture. […] Tumor and plasma sample pairs were collected from animals at the end of study for eight tumor models (three cell line xenografts and five PDTX models) and concentrations of PF-309 were measured. […]

CUCRC006 CRC PDTX model = experiment: Patient derived tumor xenograft efficacy, CUCRC006; format: in vivo, mice; settings: 25 mg/kg orally twice daily, 22–56 days, end of study tumor volumes
Protocol: as §3

P-gp = target: T1, P-gp (Homo sapiens, UniProt P08183); experiment: MDR1-MDCK transwell assay (P-gp efflux); format: in vitro ADME; settings: dog, ratio of B → A flux to A → B flux, >2 = substrate
T1 construct: expressed in transfected cells; host or cells: MDR1-MDCK cells (canine kidney MDCK)
Protocol: (§4) Permeability and transporter substrate assays were performed as previously published (Feng et al., [2008]; Callegari et al., [2011]; Di et al., [2011]). Permeability assays were conducted in MDCKII-LE cells, which were generated by isolation of a subpopulation of cells with low expression of endogenous P-gp (Feng et al., [2008]; Callegari et al., [2011]; Di et al., [2011]). The use of MDCKII-LE cells are used to measure the passive permeability of compounds in place of MDCK wild-type or Caco-2 cells since both MDCK wild-type and Caco-2 cells are known to have some level of endogenous transporter expression which can affect the permeability measurement. P-gp efflux was determined in MDR1-MDCK cells and BCRP efflux was measured in BCRP-MDCKII-LE cells.
(§5) MDR1-MDCK and BCRP-MDCKII-LE transwell assays measure the effect of P-gp and BCRP, respectively, on transcellular flux. The efflux ratio, ratio of the B → A flux to the A → B flux, of PF-309 was measured to be 34.9 ± 7.9 in the MDR1-MDCK assay, indicating it is a strong substrate for P-gp. PF-309 was also determined to be substrate for BCRP as the efflux ratio was measured to be 7.6 ± 1.1. As a reference, compounds with efflux ratios >2 are considered to be substrates (Callegari et al., [2011]).

NCIH508 = experiment: Cell proliferation assay, NCIH508; format: cell-based; settings: Homo sapiens, NCI-H508; NCIH508, 72 h, SRB assay
Protocol: as §1, §2

HCT15 = experiment: Cell proliferation assay, HCT15; format: cell-based; settings: Homo sapiens, HCT-15
Protocol: as §1, §2

BCRP = target: T2, BCRP (Homo sapiens, UniProt Q9UNQ0); experiment: BCRP-MDCKII-LE transwell assay (BCRP efflux); format: in vitro ADME; parameters: A → B: scale not given here
T2 construct: expressed in transfected cells; host or cells: BCRP-MDCKII-LE cells (canine MDCKII subpopulation with low endogenous P-gp)
Protocol: as §4, §5

DLD1 PgP_KD1 = experiment: Proliferation after shRNA knockdown of P-gp, DLD1 PgP_KD1; format: cell-based; settings: Homo sapiens, DLD-1; DLD1 PgP_KD1:50, P-gp shRNA knockdown
Protocol: as §1
The pGIPZ Pgp-specific shRNA expression cassettes, along with control shRNA plasmids including the original pGIPZ vector were purchased from Open Biosystems (Birmingham, AL, USA). […] Successful knockdown of specific genes and gene products was confirmed by semi-quantitative RT-PCR and immunoblotting with specific antibodies. […]

T2 sequence (Q9UNQ0 whole entry): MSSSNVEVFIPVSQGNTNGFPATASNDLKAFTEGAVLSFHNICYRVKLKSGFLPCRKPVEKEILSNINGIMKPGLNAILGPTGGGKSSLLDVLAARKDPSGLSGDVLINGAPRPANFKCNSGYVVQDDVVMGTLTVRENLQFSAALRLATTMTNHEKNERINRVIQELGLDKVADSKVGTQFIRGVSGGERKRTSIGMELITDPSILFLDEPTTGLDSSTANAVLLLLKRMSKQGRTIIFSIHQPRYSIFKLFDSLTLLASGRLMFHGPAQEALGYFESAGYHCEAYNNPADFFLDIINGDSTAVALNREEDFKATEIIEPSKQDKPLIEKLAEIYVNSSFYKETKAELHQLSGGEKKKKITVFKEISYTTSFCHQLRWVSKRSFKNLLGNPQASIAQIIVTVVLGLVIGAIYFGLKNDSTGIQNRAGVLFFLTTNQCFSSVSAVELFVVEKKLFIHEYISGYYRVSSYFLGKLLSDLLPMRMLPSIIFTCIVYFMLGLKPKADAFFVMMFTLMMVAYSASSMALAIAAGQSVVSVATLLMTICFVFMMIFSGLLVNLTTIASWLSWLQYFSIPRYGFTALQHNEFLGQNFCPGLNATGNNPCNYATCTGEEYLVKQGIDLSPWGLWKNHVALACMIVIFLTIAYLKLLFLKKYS
T1 sequence (P08183 whole entry): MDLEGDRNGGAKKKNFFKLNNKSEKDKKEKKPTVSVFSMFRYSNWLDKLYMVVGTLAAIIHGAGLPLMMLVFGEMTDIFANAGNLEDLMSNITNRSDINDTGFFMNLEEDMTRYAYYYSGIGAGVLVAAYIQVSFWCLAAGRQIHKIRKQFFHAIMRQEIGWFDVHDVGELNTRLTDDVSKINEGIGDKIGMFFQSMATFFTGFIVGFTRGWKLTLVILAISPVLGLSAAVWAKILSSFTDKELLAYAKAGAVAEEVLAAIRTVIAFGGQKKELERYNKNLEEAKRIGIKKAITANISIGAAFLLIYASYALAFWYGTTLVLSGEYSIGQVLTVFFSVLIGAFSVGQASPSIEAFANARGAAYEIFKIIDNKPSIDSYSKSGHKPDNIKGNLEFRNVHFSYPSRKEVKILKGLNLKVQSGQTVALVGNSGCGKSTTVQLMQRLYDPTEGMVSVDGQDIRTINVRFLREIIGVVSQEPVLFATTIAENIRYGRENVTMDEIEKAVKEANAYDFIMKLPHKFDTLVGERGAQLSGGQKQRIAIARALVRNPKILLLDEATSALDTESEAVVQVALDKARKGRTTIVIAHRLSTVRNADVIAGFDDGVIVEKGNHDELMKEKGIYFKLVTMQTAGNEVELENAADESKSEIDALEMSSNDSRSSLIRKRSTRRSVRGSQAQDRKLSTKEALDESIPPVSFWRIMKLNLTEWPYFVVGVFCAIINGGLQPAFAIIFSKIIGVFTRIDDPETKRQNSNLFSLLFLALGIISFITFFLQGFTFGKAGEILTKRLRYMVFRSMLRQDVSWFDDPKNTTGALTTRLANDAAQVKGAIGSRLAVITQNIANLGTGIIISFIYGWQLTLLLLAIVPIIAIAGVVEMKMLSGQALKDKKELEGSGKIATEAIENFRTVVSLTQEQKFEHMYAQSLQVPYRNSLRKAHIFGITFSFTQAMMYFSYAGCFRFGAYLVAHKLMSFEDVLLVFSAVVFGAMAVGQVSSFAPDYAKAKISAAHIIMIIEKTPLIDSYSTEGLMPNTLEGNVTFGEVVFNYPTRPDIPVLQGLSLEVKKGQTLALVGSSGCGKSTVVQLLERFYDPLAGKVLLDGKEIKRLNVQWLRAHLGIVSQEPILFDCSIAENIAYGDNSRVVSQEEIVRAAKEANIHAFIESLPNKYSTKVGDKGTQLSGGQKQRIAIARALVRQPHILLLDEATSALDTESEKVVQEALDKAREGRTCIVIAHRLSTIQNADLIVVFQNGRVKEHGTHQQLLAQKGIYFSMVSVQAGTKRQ

IC50 (Caco-2; Caco-2, CACO2, 72 h, SRB assay, read-out: IC50): > 1 µM
IC50 (Caco-2; Caco-2, PF-309 alone, 72 h, read-out: PF-309 IC50): 0.3 µM
efflux ratio (P-gp): 34.9 ± 7.9
IC50 (HCT15; HCT15, 72 h, SRB assay, read-out: IC50): > 1 µM
IC50 (HCT15; HCT15, PF-309 alone, 72 h (Table 2), read-out: PF-309 IC50): 0.78 µM
efflux ratio (BCRP; dog, ratio of B → A flux to A → B flux, >2 = substrate): 7.6
A → B (BCRP; transwell flux): ;1.4 ± 0.1 cm/s
IC50 (DLD1 PgP_KD1): 0.026 µM
SMILES: Cc1nc(Nc2n[nH]c3c2CN(C(=O)N[C@H](CN(C)C)c2ccccc2)C3(C)C)c2sccc2n1 [PF-309]
% Growth inhibition (CUCRC042 CRC PDTX model): 52%
% Growth inhibition (CUCRC006 CRC PDTX model): 32%
IC50 (NCIH508): > 1 µM
